Data as given in patent publication US7745455B2 (priority 2005, dated 2010).
Values joined by “and” are separate entries in the source; they are usually repeats but may differ in a detail not shown here. Equal values may be shown once.

Assays:
3TC-TP formation = details: in vitro; cited from earlier work
HIV [1] = details: 300 mg instead of 150 mg; cited from earlier work
[2] = human, in vivo; cited from earlier work
ddC phosphorylation = details: in vitro, identical concentration ratios of 10 to 100 μM; cited from earlier work
CD4+ = CD4+ count in treated patients (immunological data); type: in vivo, human; details: individual patients by date; 3TC lines = before ddC was started
[3] = Plasmatic 3TC levels in patients with or without ddC-boosted 3TC treatment; type: in vivo, human; details: individual HIV patients, one line per patient and date, 3TC with low dose ddC or without ddC
Method: It should be noted that for the plasma levels, the peak (post-dose) was at about 2 hours of the drug administration: this is not the case with intracellular triphosphate concentrations where the peaks might occur later than 2 hours post drug administration.

HIV [4] = type: in vivo; details: individual patients by date; 3TC lines = before ddC was started
3TC phosphorylation = details: in vitro, at extremely high ddC concentrations (10 to 100 higher than those of 3TC); cited from earlier work
[5] = human, in vivo; cited from earlier work; remark: listed apart in the source
HIV [6] = details: cited from earlier work

SMILES	extracellular concentration at which 3TC-TP formation is saturated (3TC-TP formation)	effect of increased dose on 3TC-TP levels (HIV [1])	3TC-TP levels reported in the literature [2]	inhibition of ddC phosphorylation (ddC phosphorylation)	CD4+ (CD4+)	concentration at 2 h ([3]; human, in vivo, 3TC plasma levels 2 h post dose)	3TC plasma levels 2 h post dose [3]	3TC plasma levels Pre-dose [3]	Viral load (HIV [4])	inhibition of 3TC phosphorylation (3TC phosphorylation)	plasma levels [5]	concentration needed for antiretroviral activity (in vivo toxicity index) (HIV [6])	toxic concentration (in vivo toxicity index) (HIV [6])
Nc1ccn([C@@H]2CS[C@H](CO)O2)c(=O)n1 [3TC, 2′ deoxy-3′-thiacytidine]	10 µM	did not significantly increased the 3TC-TP levels	1-5 μmol/10^6 PBMC	inhibited ddC phosphorylation in a concentration-dependent manner	180 and 760 and 220 and 770	700 ng/mL	779 ng/ml and 1 057 ng/ml	143 ng/ml and 35 ng/ml (2×)	291 392 ^ and 1 344 ^ and 124 and 445				
Nc1ccn([C@H]2CC[C@@H](CO)O2)c(=O)n1 [ddC, 2′-3′-dideoxycytidine]										did inhibit in vitro 3TC phosphorylation	500 to 1500 nM	0.1 µM	0.2 µM
